Test results from patent US20250268903A1, “RXFP1 AGONISTS” (BRISTOL-MYERS SQUIBB COMPANY, priority 2021, published 2025).

Target: T1, human RXFP1 (Homo sapiens, UniProt Q9HBX9)
T1 construct: expressed in transfected cells
T1 sequence (Q9HBX9 1-757): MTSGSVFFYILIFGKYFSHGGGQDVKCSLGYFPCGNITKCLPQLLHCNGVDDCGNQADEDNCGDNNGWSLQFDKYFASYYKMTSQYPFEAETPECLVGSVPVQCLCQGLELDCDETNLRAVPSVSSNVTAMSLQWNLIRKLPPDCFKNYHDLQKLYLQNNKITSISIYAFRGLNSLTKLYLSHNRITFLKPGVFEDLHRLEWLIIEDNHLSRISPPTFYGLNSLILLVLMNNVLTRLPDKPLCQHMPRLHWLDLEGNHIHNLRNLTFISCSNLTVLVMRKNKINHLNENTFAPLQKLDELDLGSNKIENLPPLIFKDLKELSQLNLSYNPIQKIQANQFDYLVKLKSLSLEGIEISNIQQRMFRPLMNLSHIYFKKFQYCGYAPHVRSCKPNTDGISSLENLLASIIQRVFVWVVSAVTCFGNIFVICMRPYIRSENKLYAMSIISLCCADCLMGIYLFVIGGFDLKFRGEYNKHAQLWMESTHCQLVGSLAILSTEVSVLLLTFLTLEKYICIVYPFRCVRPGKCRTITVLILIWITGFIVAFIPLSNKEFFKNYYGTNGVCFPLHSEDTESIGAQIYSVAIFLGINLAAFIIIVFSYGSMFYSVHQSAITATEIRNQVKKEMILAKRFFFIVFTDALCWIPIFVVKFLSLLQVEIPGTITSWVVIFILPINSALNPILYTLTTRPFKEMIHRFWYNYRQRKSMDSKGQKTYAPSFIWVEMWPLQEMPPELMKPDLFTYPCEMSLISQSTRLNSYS
Experiment: hRXFP1 HEK293 cAMP assay (HTRF)
Format: cell-based
Settings: HEK293 cells stably expressing human RXFP1, 30 min at room temperature
In short: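 HEK293 cells stably expressing human RXFP1 were suspended in HBSS (Ca/Mg) with 20 mM HEPES, 0.05% BSA and 0.5 mM IBMX, then treated with compounds (0.010 nM–50 μM, 2% DMSO final) for 30 min at room temperature. Intracellular cAMP was measured by HTRF, and potency was derived from 4-parameter logistic fits.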

Row | SMILES | EC50 [nM]
1 | COc1ccc(C#CCCOC(=O)NC2CCC2)cc1C(=O)N[C@@H]1C2CCC(/C2=C/C(F)(F)F)[C@@H]1C(=O)Nc1ccc(F)c(C(F)(F)F)c1 (stereo partly drawn) [Example 79, 4-(3-{[(2R,3S,7Z)-3-{[4-fluoro-3-(trifluoromethyl)phe-nyl]carbamoyl}-7-(2,2,2-trifluoroethylidene)bi-cyclo[2.2.1]heptan-2-yl]carbamoyl}-4-methoxyphenyl)but-3-yn-1-yl N-cyclobutylcarbamate] | 104
2 | COc1ccc(C#CCCCOC(=O)NC2CCC2)cc1C(=O)N[C@@H]1C2CCC(/C2=C/C(F)(F)F)[C@@H]1C(=O)Nc1ccc(F)c(C(F)(F)F)c1 (stereo partly drawn) [Example 80, 5-(3-{[(2R,3S,7Z)-3-{[4-fluoro-3-(trifluoromethyl)phe-nyl]carbamoyl}-7-(2,2,2-trifluoroethylidene)bi-cyclo[2.2.1]heptan-2-yl]carbamoyl}-4-methoxyphenyl)pent-4-yn-1-yl N-cyclobutylcarbamate] | 303
3 | COc1ccc(C#CCCCCOC(=O)NC2CCC2)cc1C(=O)N[C@@H]1C2CCC(/C2=C/C(F)(F)F)[C@@H]1C(=O)Nc1ccc(F)c(C(F)(F)F)c1 (stereo partly drawn) [Example 81, 6-(3-{[(2R,3S,7Z)-3-{[4-fluoro-3-(trifluoromethyl)phe-nyl]carbamoyl}-7-(2,2,2-trifluoroethylidene)bi-cyclo[2.2.1]heptan-2-yl]carbamoyl}-4-methoxyphenyl)hex-5-yn-1-yl N-cyclobutylcarbamate] | 373
4 | COc1ccc(CCCO)cc1C(=O)N[C@@H]1C2CCC(/C2=C/C2CCC2)[C@@H]1C(=O)Nc1ccc(F)c(C(F)(F)F)c1 (stereo partly drawn) [Example 86, (2S,3R,7Z)-7-(cyclobutylmethyli-dene)-N-[4-fluoro-3-(trifluoromethyl)phe-nyl]-3-[5-(3-hydroxypropyl)-2-methoxybenzamido] bicyclo[2.2.1]heptane-2-carboxamide] | 45
5 | COc1ccc(CCC(C)(C)O)cc1C(=O)N[C@@H]1C2CCC(/C2=C/C2CCC2)[C@@H]1C(=O)Nc1ccc(F)c(C(F)(F)F)c1 (stereo partly drawn) [Example 87, (2S,3R,7Z)-7-(cyclobutylmethyli-dene)-N-[4-fluoro-3-(trifluoromethyl)phe-nyl]-3-[5-(3-hydroxy-3-methylbutyl)-2-methoxybenzamido] bicyclo[2.2.1]heptane-2-carboxamide] | 9
6 | CCCC/C=C1\C2CCC1[C@H](C(=O)Nc1ccc(F)c(C(F)(F)F)c1)[C@@H]2NC(=O)c1cc(CCC(C)(C)O)ccc1OC (stereo partly drawn) [Example 89, (2S,3R,7Z)-N-[4-fluoro-3-(trifluoromethyl)phe-nyl]-3-[5-(3-hydroxy-3-methylbutyl)-2-methoxybenzamido]-7-pentylidenebicyclo [2.2.1]heptane-2-carboxamide] | 45
7 | COc1ccc(CCC(C)(C)O)cc1C(=O)N[C@@H]1C2CCC(/C2=C/C2CC2)[C@@H]1C(=O)Nc1ccc(F)c(C(F)(F)F)c1 (stereo partly drawn) [Example 90, (2S,3R,7Z)-7-(cyclopropylmethyli-dene)-N-[4-fluoro-3-(trifluoromethyl)phe-nyl]-3-[5-(3-hydroxy-3-methylbutyl)-2-methoxybenzamido] bicyclo[2.2.1]heptane-2-carboxamide] | 14
8 | COc1ccc(CCCO)cc1C(=O)N[C@@H]1C2CCC(/C2=C/C2CC2)[C@@H]1C(=O)Nc1ccc(F)c(C(F)(F)F)c1 (stereo partly drawn) [Example 91, (2S,3R,7Z)-7-(cyclopropylmethyli-dene)-N-[4-fluoro-3-(trifluoromethyl)phe-nyl]-3-[5-(3-hydroxypropyl)-2-methoxybenzamido] bicyclo[2.2.1]heptane-2-carboxamide] | 70
9 | COc1ccc(CCCCO)cc1C(=O)N[C@@H]1C2CCC(/C2=C/C2CCC2)[C@@H]1C(=O)Nc1ccc(F)c(C(F)(F)F)c1 (stereo partly drawn) [Example 96, (2S,3R,7Z)-7-(cyclobutylmethyli-dene)-N-[4-fluoro-3-(trifluoromethyl)phe-nyl]-3-[5-(4-hydroxybutyl)-2-methoxybenzamido] bicyclo[2.2.1]heptane-2-carboxamide] | 46

More lines, now with the values ahead:

Row | EC50 [nM] | SMILES
10 | 125 | COc1ccc(CCC(C)(C)O)cc1C(=O)N[C@@H]1C2CCC(/C2=C/C(F)(F)F)[C@@H]1C(=O)Nc1ccc(F)c(C(F)(F)F)c1 (stereo partly drawn) [Example 82]
11 | 1710 | COc1ccc(CCC(C)C)cc1C(=O)N[C@@H]1C2CCC(/C2=C/C(F)(F)F)[C@@H]1C(=O)Nc1ccc(F)c(C(F)(F)F)c1 (stereo partly drawn) [Example 83]
12 | 67 | COc1ccc(CCCO)cc1C(=O)N[C@@H]1C2CCC(/C2=C/C(F)(F)F)[C@@H]1C(=O)Nc1ccc(F)c(C(F)(F)F)c1 (stereo partly drawn) [Example 84, (2S,3R,7Z)-N-[4-fluoro-3-(trifluoromethyl)phe-nyl]-3-[5-(3-hydroxypropyl)-2-methoxybenzamido]-7-(2,2,2-trifluoroethylidene)bi-cyclo[2.2.1]heptane-2-carboxamide]
13 | 3000 | CCCc1ccc(OC)c(C(=O)N[C@@H]2C3CCC(/C3=C/C(F)(F)F)[C@@H]2C(=O)Nc2ccc(F)c(C(F)(F)F)c2)c1 (stereo partly drawn) [Example 85, (2S,3R,7Z)-N-[4-fluoro-3-(trifluoromethyl)phe-nyl]-3-(2-methoxy-5-propylbenzamido)-7-(2,2,2-trifluoroethylidene)bi-cyclo[2.2.1]heptane-2-carboxamide]
14 | 172 | COc1ccc(CC[C@H](C)O)cc1C(=O)N[C@@H]1C2CCC(/C2=C/C(F)(F)F)[C@@H]1C(=O)Nc1ccc(F)c(C(F)(F)F)c1 (stereo partly drawn) [Example 92, (2S,3R,7Z)-N-[4-fluoro-3-(trifluoromethyl)phe-nyl]-3-{5-[(3S)-3-hydroxybutyl]-2-methoxybenzamido}-7-(2,2,2-trifluoroethylidene)bi-cyclo[2.2.1]heptane-2-carboxamide]
15 | 248 | COc1ccc(CC[C@@H](C)O)cc1C(=O)N[C@@H]1C2CCC(/C2=C/C(F)(F)F)[C@@H]1C(=O)Nc1ccc(F)c(C(F)(F)F)c1 (stereo partly drawn) [Example 93, (2S,3R,7Z)-N-[4-fluoro-3-(trifluoromethyl)phe-nyl]-3-{5-[(3R)-3-hydroxybutyl]-2-methoxybenzamido}-7-(2,2,2-trifluoroethylidene)bi-cyclo[2.2.1]heptane-2-carboxamide]
16 | 62 | COc1ccc(CC[C@H](C)O)cc1C(=O)N[C@@H]1C2CCC(/C2=C/C2CC2)[C@@H]1C(=O)Nc1ccc(F)c(C(F)(F)F)c1 (stereo partly drawn) [Example 94, (2S,3R,7Z)-7-(cyclopropylmethyli-dene)-N-[4-fluoro-3-(trifluoromethyl)phe-nyl]-3-{5-[(3S)-3-hydroxybutyl]-2-methoxybenzamido} bicyclo[2.2.1]heptane-2-carboxamide]
17 | 50 | COc1ccc(CC[C@@H](C)O)cc1C(=O)N[C@@H]1C2CCC(/C2=C/C2CC2)[C@@H]1C(=O)Nc1ccc(F)c(C(F)(F)F)c1 (stereo partly drawn) [Example 95, (2S,3R,7Z)-7-(cyclopropylmethyli-dene)-N-[4-fluoro-3-(trifluoromethyl)phe-nyl]-3-{5-[(3R)-3-hydroxybutyl]-2-methoxybenzamido} bicyclo[2.2.1]heptane-2-carboxamide]
18 | 82 | COc1ccc(CCCCCO)cc1C(=O)N[C@@H]1C2CCC(/C2=C/C(F)(F)F)[C@@H]1C(=O)Nc1ccc(F)c(C(F)(F)F)c1 (stereo partly drawn) [Example 97, (2S,3R,7Z)-N-[4-fluoro-3-(trifluoromethyl)phe-nyl]-3-[5-(5-hydroxypentyl)-2-methoxybenzamido]-7-(2,2,2-trifluoroethylidene)bi-cyclo[2.2.1]heptane-2-carboxamide]
19 | 111 | COc1ccc(CCCCO)cc1C(=O)N[C@@H]1C2CCC(/C2=C/C(F)(F)F)[C@@H]1C(=O)Nc1ccc(F)c(C(F)(F)F)c1 (stereo partly drawn) [Example 98, (2S,3R,7Z)-N-[4-fluoro-3-(trifluoromethyl)phe-nyl]-3-[5-(4-hydroxybutyl)-2-methoxybenzamido]-7-(2,2,2-trifluoroethylidene)bi-cyclo[2.2.1]heptane-2-carboxamide]
20 | 268 | COc1ccc(CCCCCCO)cc1C(=O)N[C@@H]1C2CCC(/C2=C/C(F)(F)F)[C@@H]1C(=O)Nc1ccc(F)c(C(F)(F)F)c1 (stereo partly drawn) [Example 99, (2S,3R,7Z)-N-[4-fluoro-3-(trifluoromethyl)phe-nyl]-3-[5-(6-hydroxyhexyl)-2-methoxybenzamido]-7-(2,2,2-trifluoroethylidene)bi-cyclo[2.2.1]heptane-2-carboxamide]
21 | 372 | COc1ccc(CCC(O)C(F)(F)F)cc1C(=O)N[C@@H]1C2CCC(/C2=C/C(F)(F)F)[C@@H]1C(=O)Nc1ccc(F)c(C(F)(F)F)c1 (stereo partly drawn) [Example 100, (2S,3R,7Z)-N-[4-fluoro-3-(trifluoromethyl)phe-nyl]-3-[2-methoxy-5-(4,4,4-trifluoro-3-hydroxybutyl)benza-mido]-7-(2,2,2-trifluoroethylidene)bi-cyclo[2.2.1]heptane-2-carboxamide]
